Several values for one entry are separate records, joined by “and”; a condition that tells them apart may be missing. Identical values can stand only once.

Series [1] deals with pG1035 (SplicerCAT). Put plainly: Inhibition of CAT expression, splicing target pG1035 (SplicerCAT), in COS-7 cells. The format is cell-based, African Green Monkey. The following applies: 1.0 μM oligomer; ± std error; normalized to protein and luciferase; chimeric oligomers also normalized to pG1036. As for the experimental part:
(§1) COS-7 cells were transiently transfected with plasmids encoding either a target reporter gene or a control non-target reporter gene. These cells were then treated with various chimeric antisense or control oligomers and then assayed for the expression of the reporter genes.
pG1035: Splicer CAT, inserted into a pRc/CMV vector
COS 7 cells were plated at 1.5×10^5 cells/well in a 12 well plate format on the day before transfections began. All cultures were maintained at 37° C. On the next day, the transfection mixes were prepared. For each well of a 12 well plate, 1.0 μM oligomer was combined with 1 μg pGL2 or pSVβ+1 μg of the target CAT plasmid in 0.5 ml of Optimem (Gibco/BRL) and 18.75 μg Transfectam (for chimeric oligomers, Promega) or Lipofectamine (for all PS oligomers, Promega) also in 0.5 ml of Optimem. These quantities gave a 6.9 or 4.5 or 2.0 to 1 cationic lipid to oligomer plus DNA ratio, respectively, in one milliliter total. pGL2 and pSVβ served as transfection and oligomer specificity controls. […]
(§2) The cell lysates were then assayed for CAT, and luciferase or […] activity, and the total protein concentration was determined as described below. […]
(§3) […] of reaction mixture was then added to each tube, which was then incubated for, typically, approximately 1 hour in a 37° C. oven. […] The sample was then counted in a Packard scintillation counter.
(§4) This assay was performed generally as follows according to standard procedures. 20 μof lysate was combined with 100 μl of luciferase assay reagent (Promega) and counted in a scintillation counter (Packard) within 20 seconds (as recommended by Promega). […]
Six μl of lysate per well was added, followed by 300 μl Coomassie Protein Assay Reagent (Pierce) per well. The individual sample plates were then read at A570 on a microplate reader (Molecular Devices). […]
Oligomers were transfected into COS-7 cells and lysates were made and assayed as described previously. […] N.D.=not determined. […]

The test system of series [2] is pG1036 (wild-type CAT). Put plainly: Inhibition of CAT expression, non-splicing control pG1036 (wild-type CAT), in COS-7 cells. The following applies: 1.0 μM oligomer; ± std error; normalized to protein and luciferase. It counts as cell-based, African Green Monkey. As for the experimental part:
as §1
pG1036: Wild-type CAT, inserted into a pRc/CMV vector
COS 7 cells were plated at 1.5×10^5 cells/well in a 12 well plate format on the day before transfections began. All cultures were maintained at 37° C. On the next day, the transfection mixes were prepared. […] These quantities gave a 6.9 or 4.5 or 2.0 to 1 cationic lipid to oligomer plus DNA ratio, respectively, in one milliliter total. pGL2 and pSVβ served as transfection and oligomer specificity controls. […]
as §2, §3, §4

In series [3] the test system is complementary synthetic RNA target. Put plainly: Binding affinities of chimeric backbone oligomers to RNA (Example 35). Set-up: KA (37° C.): unit not given here. The following applies: for Tm: 1:1 molar ratio, 2.4 micromolar total strand, pH 7.2, 100 mM NaCl; for KA (37° C.): two-state model fit. As for the experimental part: The following oligonucleotides were tested for their ability to hybridize to a complementary synthetic RNA target.
The bases shown in parentheses contain the backbone modification indicated in the middle set of brackets for each description, and likewise the terminal portions of the oligomers contain linkage structures as shown in the terminal sets of brackets. The PS/DE notation indicates an alternating array of bases beginning with a phosphorothioate linkage. For example, if there are five bases in a sequence denoted as PS/DE, they include three phosphorothioate (PS) bonds and two phosphodiester (DE) bonds.
Each oligomer was mixed with its complementary synthetic RNA target in a 1:1 molar ratio in a buffer system consisting of 20 mM sodium phosphate buffer (pH 7.2), 100 mM NaCl, 0.03% potassium sarkosylate and 0.1 mM EDTA; total strand concentration=2.4 micromolar. The resulting solutions were heated to 70° C. and slowly cooled to 4° C. over a time period of approximately 4-6 hours. […] The binding constants at 37° C.

Series [4] relates to S1-endonuclease. Put plainly: Stability to nuclease digestion by S1-endonuclease (Example 37). It counts as in vitro ADME. To be noted: S1-endonuclease 0.5 units/mL, pH 5.0, 37° C.; 50% full length oligomer digested. As for the experimental part: The following oligomers were tested for nuclease stability in the presence of S1-endonuclease.
S1-endonuclease was purchased from Promega Corp. (Catalog #E576B, Madison, Wis.). Aliquots of each chimeric oligomer (0.05-0.075 OD260 units) were individually added to polypropylene microcentrifuge tubes containing S1-endonuclease (0.5 units/mL) in 30 mM sodium acetate (pH 5.0), 50 mM NaCl, 1.0 mM zinc acetate and 5% glycerol; total reaction volume=10 μL. These tubes were incubated at 37° C. for specified time periods, quickly frozen in dry ice and then stored in a freezer at -20° C. […] Column=Vydac Protein C4 (catalog #214TP54, 4.9 mm i.d.×250 mm long). Buffer A=50 mM triethylammonium acetate (pH 7)/1% acetonitrile; Buffer B=50 mM triethylammonium acetate (pH 7)/50% acetonitrile. […] The samples were diluted with water (50 μL) and injected onto the column using a 100 μL sample loop. Peaks corresponding to full length oligomer and its degradation products were detected by monitoring at 260 nm. The amount of degradation occurring in each reaction was determined by measuring the reduction in peak area for the full-length oligomer (identified by comparison to an external control and/or by coinjecting undigested oligomer as an internal control). The data is shown in tabular format below, and in graphic format in FIG. 1.

Series [5] can be described thus: Stability to nuclease digestion in 10% fetal calf serum (Example 38). It counts as in vitro ADME. The following applies: pH 8.0, 37° C., 50% full length oligomer digested, first three time points. As for the experimental part:
Multiple samples of each chimeric oligomer were prepared in 1.5 mL polypropylene microcentrifuge tubes on ice. Each sample contained oligomer (0.1 OD260 unit), 10% fetal calf serum (FCS, Gemini Bioproducts, Calabasas, Calif.), 20 mM HEPES (pH 8.0), 0.2% paramethylsulfonyl fluoride (PMSF), 175 mM KCl, 0.1 mM dithiothreitol, 0.1 mM EDTA, 2 mM MgCl2 and 4% glycerol--total volume=100 μL. The samples were incubated at 37° C. for specified time periods and then diluted with 0.4% NP-40/acetonitrile (35 μL), quickly frozen on dry ice and stored at -20° C. Samples were then individually thawed, diluted with water (635 μL) and analyzed immediately by reversed-phase HPLC according to the method given in the preceding example (except that a 2 mL sample loop was used to load the samples onto the column). Results are shown in tabular format below, and in graphical format in FIG. 2.

Series [6] concerns target mRNA. Put plainly: Cell-free translation of target mRNA in rabbit reticulocyte lysates (Example 39). The format is biochemical. As for the experimental part:
(§5) A target mRNA having complementarity to these oligomers at the initiation codon region was prepared by standard cloning techniques with […] catalyzed by T7 polymerase (Promega MEGAscript kit for uncapped RNA), according to the manufacturer's protocol. Control CAT mRNA was obtained from GIBCO as a control for specificity.
(§6) Target mRNA and control CAT mRNA were translated in a cell-free translation assay in rabbit reticulocyte lysates (Promega), in the presence of ^35 [S]-Cys (NEN/DuPont) following the manufacturer's directions. Oligos 2567-1 and 3169-1 were added to individual translation reactions at […], final concentrations. RNAse-H (Promega Corp.) was added to all the translation reactions at 0.04 units/ul. Each condition was run in triplicate. Translation reactions were incubated at 37° C. for 1 hour. At the end of the translation reactions, proteins were denatured with Laemmli Sample Buffer (Novex) and the amounts of target proteins synthesized in each case were evaluated after immunoprecipitation with an hyperimmune antibody serum followed by gel fractionation of the protein products (10-20% gradient SDS-PAGE gels, Novex) and phosphoimage analysis. The amount of control CAT protein synthesized in each case was evaluated after gel fractionation of one aliquot of the denatured translation reaction (10-20% gradient SDS-PAGE gels, Novex) and phosphoimage analysis.

Series [7] has as its system control CAT mRNA. Put plainly: Cell-free translation of control CAT mRNA in rabbit reticulocyte lysates (Example 39). The format is biochemical. To be noted: 0.2 or 1 μM. As for the experimental part:
as §5
as §6, with “Translation reactions were incubated at 37° C. for 1 hour.” left out

For series [8], the system named is target mRNA. Put plainly: Cleavage of target mRNA in the presence of RNAseH (Example 40). It counts as biochemical. To be noted: for % of target mRNA cleavage: 30 minutes, estimated by visual inspection of the gel; for specificity of target mRNA cleavage: denaturing gel. As for the experimental part:
A target mRNA having complementarity to these oligomers at the initiation codon region was prepared by standard cloning techniques with transcription using a T7 polymerase cell-free assay (Promega MEGAscript kit for uncapped RNA), according to the manufacturer's protocol. The resulting mRNA transcript is approximately 340 nt in length.
The ability to cleave this target mRNA, in the presence of RNAseH and either of oligomers 2567-1 {[MP]-[DE]-[MP]} and 3169-1 {[MP(Rp)/DE]-[DE]-[MP(Rp)/DE]} was determined as follows.
Cell-free transcribed mRNA (100 nM) was incubated at 37° C., in a cell-free translation buffer (containing 3.5 mM MgCl2, 25 mM KCl, 70 mM NaCl and 20 mM potassium acetate), in the presence of 0.04 units/μl of RNAseH (Promega) and either of oligomers 2567-1 or 3169-1 at 0, 0.01, 0.1, 1, or 10 μM. After 30 minutes, the RNA was extracted, denatured and run in a denaturing gel. After the run, the RNA was stained with ethidium bromide and its integrity was determined by visual observation of the RNA bands present in the gel.

Series [9] relates to endogenous eukaryotic RNaseH derived from HeLa cell nuclear extracts. It counts as biochemical. The following applies: 10 μM oligomer, 1 μM RNA target.

For the substance “XV-5: 24mer, all phosphorothioate: 5' cac tca cct tta ggg aaa tag gcc 3' (CACTCACCTTTAGGGAAATAGGCC; all phosphorothioate, sugars by position and methylation of C not given here)”, the “percent inhibition of CAT expression, pG1035 = splicing” value in series [1] is given as 32 ± 1%. The “percent inhibition of CAT expression, pG1036 = non-splicing” value in [2] was found to be 35 ± 1%.

Take “2567-1: 5'-GTCTTCCA(TGCAT)GTTGTCC-3' [MP][DE][MP] [Oligomer 2567-1]”: in series [3], the Tm came to 45.6 °C. In addition, the “KA (37° C.)” value in series [3] was 2.9 × 10^7. Further, the figures for the “Half-Life for Degradation” value in [4] and in series [5] were 1.7 h and 5.8 h, respectively. The “inhibition of target mRNA translation” value is given as “approximately 0%” in series [6] (0.2 μM) and “approximately 50%” in series [6] (1 μM). The “inhibition of control CAT mRNA translation” value in series [7] is reported as “little inhibition”. In addition, the “% of target mRNA cleavage” value is 2% in series [8] (0.01 μM); 15% in series [8] (0.1 μM); ~ 50% and 50% in series [8] (1 μM); 80% in [8] (10 μM). Moreover, the “specificity of target mRNA cleavage” value in series [8] is recorded as “good specificity, cleaving the target mRNA in one position”.

As for “3169-1: 5'-GTCTTCCA(TGCAT)GTTGTCC-3' [MP(Rp)/DE][DE][MP(Rp)/DE] [Oligomer 3169-1]”, the Tm in series [3] is 62.6 °C. The “KA (37° C.)” value in series [3] was 6.0 × 10^14. Moreover, the “RNaseH Cleavage after 2 Hrs. at 37° C.” value in series [9] was found to be 52.0%. Further, the results for the “Half-Life for Degradation” value in series [4] and in [5] were 0.9 h and 3.4 h, respectively. Also, the “inhibition of target mRNA translation” value in series [6] (0.2 μM) is given as “approximately 50%”; in series [6] (1 μM), about 90%. The “inhibition of control CAT mRNA translation” value in series [7] was “little inhibition”. Also, the “% of target mRNA cleavage” value in [8] (0.01 μM) was 5%; in [8] (0.1 μM) it was 40%; in series [8] (1 μM), ~ 98% and 98%; in series [8] (10 μM), 100%. In [8], the “specificity of target mRNA cleavage” value is given as “good specificity, cleaving the target mRNA in one position”.

As for “XV-6: 24mer, all phosphorothioate: 5' cac tca atc aat gac tag tct gca 3' (CACTCAATCAATGACTAGTCTGCA; all phosphorothioate, sugars by position and methylation of C not given here)”, the “percent inhibition of CAT expression, pG1035 = splicing” value in series [1] stood at 23 ± 15%. Besides, the “percent inhibition of CAT expression, pG1036 = non-splicing” value in [2] came to 30 ± 4%.
